Data set [1] is described as follows: Single-dose pharmacokinetic study, oral and intravenous, in SD rats.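 As to AUClast: AUClast in h·ng/mL.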 The format is in vivo, SD rat. The conditions noted are these: for AUC(0-inf): read-out: AUCINF—pred; for half-life: read-out: HL_Lambda_z (T1/2) (converted); for Vd/F: read-out: Vz—F—pred. The method, then: Form 1, Form 2, and Form 5D were each evaluated via a single-dose pharmacokinetic study following oral and intravenous administration in SD rats. […] Form 1, Form 2, and Form 5Dwere evaluated by rat pharmacokinetics study.
Male SD rat was purchased from Shanghai Sippr B&K Laboratory Animals Co., Ltd. The weight was 180 g˜200 g.
20% HP-β-CD was prepared from dissolving20 g of HP-β-CD (from Sigma) in 100 mL purified water. 0.5% CMC-Na was prepared from dissolving 1 g of CMC-Na (from Aladdin) in 200 mL purified water. The solutions were stored at 2-8 degree.
Group 1:4.95 mg (equivalent to 4.50 mg of anhydrous free base) of Form 1 was weighed out into a 20 ml bottle, and totally dissolved by 0.225 mL DMSO by sonication. After that, 4.275 mL of 20% HP-β-CD was added, mixed well by sonication. Finally, the pH value was adjusted to 7.0 by sodium hydroxide solution. The clear solution was obtained, and the concentration was 1 mg/mL.
Group 2:10.08 mg (equivalent to 9.164 mg of anhydrous free base) of Form 1 was weighed out into a 20 ml bottle, and then 9.164 mL of 0.5% CMC-Na was added. A white suspension was formed after sonicated by ultrasonic cell disruptor, and the concentration was 1 mg/mL.
Group 3:9.47 mg of Form 2 was weighed out into a 20 ml bottle, and then 9.470 mL of 0.5% CMC-Na was added. After sonicated, it was mixed well by homogenizer for 2 minutes. Finally, a white suspension was formed, and the concentration was 1 mg/mL.
Group 4:9.80 mg (equivalent to 8.909 mg of free base) of Form 5Dwas weighed out into a 20 mL bottle, and then 8.909 mL of 0.5% CMC-Na was added. After sonicated, it was mixed well by homogenizer for 2 minutes. Finally, a white suspension was formed, and the concentration was 1 mg/mL.
Group 5:1.94 mg (equivalent to 1.763 mg of anhydrous free base) of Form 1 was weighed out into a 20 ml bottle, and totally dissolved by 0.088 mL DMSO by sonication. After that, 1.675 mL of 20% HP-β-CD was added, mixed well by sonication. Finally, the pH value was adjusted to 7.0 by sodium hydroxide solution. The clear solution was obtained, and the concentration was 0.2 mg/mL.
The dose of intravenous administration was 1 mg/kg and 5 mg/kg, respectively. The oral dose was 10 mg/kg. Animals were fasted overnight before drug administration. After the drug administration, the rats were fed at the 4 hours.
About 150˜200 μL of blood was collected at the initial time (only intravenous), and at 0.25, 0.5, 1, 2, 4, 6, 8 and 24 h by jugular venipuncture blooding method. EDTA-K2 was selected as anticoagulant. Blood samples were centrifuged within one hour at 6000 rpm for 8 minutes (placed on wet ice before centrifugation). The supernatant was stored at −20° C. for LC-MS/MS analysis.
The computer program Microsoft Office Excel 2007 (Microsoft, USA) was used to process data and graphics. The pharmacokinetic parameters were calculated by WinNolin 6.4 software.

Data set [2] in a line: Solid state stability under stress conditions (XRPD, HPLC). The format is physicochemical. As for the experimental part: Form 1. Form 2, Form 6, Form 8, and Form 11 were each placed under following stress conditions: (1) in a closed vial at a temperature of about 60° C., and (2) in a closed vial at a temperature of about 40′° C. and a humidity of about 75% RH. The solids were analyzed with XRPD at 1 week and 2 weeks intervals.
Additionally, all forms were analyzed with HPLC for impurity at the 1 week and 2 weeks intervals. In a typical analysis, about 5 mg of forms were each dissolved in 10 ml of diluents with the aid of sonication for 2 minutes. THF was used as the diluent for Form 1, and methanol was used as the diluent for Form 6, Form 8, and Form 11. The HPLC analysis utilized Agilent Eclipse XDB-C18 4.6*150 mm. 3.5 μm at 30° C., a mobile phase of a gradient between 0.1% H3PO4 and acetonitrile (9:1 to 2:8 to 9:1), an injection volume of 10 μl, a flow rate of 1.0 ml/min, and a detection wavelength of 214 nm.
Form 2 was further subject to the stability test in an open vial at 40° C. and a relative humidity of 75% RH.

Data set [3] in a line: Dynamic vapor sorption/desorption (DVS). The format is physicochemical.
Where [4] appears, read: male SD rats, oral 10 mg/kg, Average (Table 10).
The mark [5] stands for this setting: male, SD, rat, plasma, po, 10 mg/kg, male SD rats, oral 10 mg/kg, Average (Table 10).
Setting [6] is: male, SD, rat, plasma, po, 10 mg/kg, male SD rats, oral 10 mg/kg, individual rats 301/302/303 (c1/c2/c3).

Molecules are shown by their SMILES. “Also recorded” adds a separate entry of the source. Read-outs that look alike come from different tables or passages of the source.

Regarding `CCc1nc2ccccn2c1C(=O)c1cc(Br)c(O)c(C#N)c1` [Form 2, 3-bromo-5-[(2-ethylimidazo[1,2-a]pyridin-3-yl)carbonyl]-2-hydroxybenzonitrile], the “Exposure and bioavailability (words, comparison)” value in data set [1] (SD rats, oral administration 10 mg/kg, 10 mg/kg) is “higher dose exposure and bio-availability than Form 1; also recorded: higher exposure (AUC0-1) and better bioavailability than Form 1; also recorded: approximately the same as Form 5D; also recorded: sufficiently high bioavailability”. Moreover, in data set [1] (setting [4]), the AUClast was 88482.4 ng·h/mL and the “Cl—F—pred” value stood at 2 mL/min/kg. For the same compound, the F in data set [1] (male SD rats, oral 10 mg/kg, calculated by intravenous administration of 1 mg/kg, Average (Table 10)) is 50.98%. In data set [1] (setting [5]), the highest concentration (Cmax) was 7950 ng/mL, the MRT last worked out at 6.12 h, the Tmax stood at 4 h and the AUC(0-inf) came to 89100 ng·h/mL. Also, in data set [1] (setting [5]), the half-life was 3.08 h and the Vd/F amounted to 0.52 L/kg. In addition, in data set [1] (setting [6]), the AUC(0-t) was 108000 ng·h/mL, the peak level (Cmax) was 8490 ng/mL, the MRT last was determined as 6.15 h and the Tmax is 4 h. For the same compound, in data set [1] (setting [6]), the AUC(0-inf) was 92400 ng·h/mL, the half-life was 3.32 h and the Vd/F was found to be 0.45 L/kg. For the same compound, in data set [2] (closed vial about 60° C., closed vial about 40° C./75% RH, 1 week and 2 weeks), the “XRPD pattern after stress storage” value was “substantially similar to those received at the initial time”. Also, in data set [2] (open vial, 40° C., 75% RH), the “XRPD after storage in an open vial” value was “significant changes at the end of ninth day”. Besides, the “DVS (80% RH)” value in data set [3] (25° C., 80% RH) worked out at 0.40%. Besides, the “Water remaining within the sample (DVS desorption)” value in data set [3] (relative humidity decreased back to 0%) is recorded as “about 3.4%”. Besides, the “Hygroscopicity (DVS)” value in data set [3] (relative humidity less than 80%) was “low hygroscopicity”. Besides, the “Crystal form after DVS analysis (XRPD)” value in data set [3] (sample following DVS analysis) is reported as “converted into Form 1”. For the same compound, in data set [3] (when relative humidity reached 85% RH), the “Water absorbed (DVS)” value was “about 3.8%”.

The record behind these values is US20250368639A1, “SOLID FORMS OF A COMPOUND FOR TREATING OR PREVENTING HYPERURICEMIA OR GOUT” (ATOM THERAPEUTICS CO., LTD, priority 2022, published 2025).
